Data reported in patent US8470810B2, “Heterocyclic compounds suitable for treating disorders that respond to modulation of the dopamine D3 receptor” (Abbott GmbH & Co. KG, priority 2004, dated 2013).
pKi: −log10 of the molar value.

Tests used:
[1] = biological target: T1, human dopamine D3 receptors (Homo sapiens, UniProt P35462); experiment: Dopamine D3 receptor binding, displacement of [125I]-iodosulpride; details: for pKi: membranes of HEK-293 cells stably expressing human D3, 0.1 nM [125I]-iodosulpride, 25° C., 60 minutes; for Ki(D2)*/Ki(D3)*: selectivity ratio of the receptor binding constants D2 over D3
T1 construct: expressed in transfected cells
T1 sequence (P35462 whole entry): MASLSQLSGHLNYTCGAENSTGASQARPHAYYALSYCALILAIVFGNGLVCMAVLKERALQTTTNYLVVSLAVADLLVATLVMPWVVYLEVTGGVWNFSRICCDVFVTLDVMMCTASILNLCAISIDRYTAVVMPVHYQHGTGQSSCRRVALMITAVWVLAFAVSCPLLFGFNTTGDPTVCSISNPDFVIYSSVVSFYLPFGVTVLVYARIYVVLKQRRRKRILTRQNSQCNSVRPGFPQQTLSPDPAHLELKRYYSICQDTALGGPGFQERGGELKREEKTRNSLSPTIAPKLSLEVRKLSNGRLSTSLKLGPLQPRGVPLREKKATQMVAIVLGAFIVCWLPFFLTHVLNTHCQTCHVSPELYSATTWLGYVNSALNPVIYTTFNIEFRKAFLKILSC
Procedure, shortened: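 Displacement of [125I]-iodosulpride at human D3 receptors in pH 7.4 Tris buffer with NaCl, KCl, CaCl2, MgCl2, 0.1% BSA, 10 μM quinolone and 0.1% ascorbic acid, 60 min at 25 °C, in triplicate. Bound label collected by filtration and counted; Ki from nonlinear regression of inhibition curves.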

[2] = biological target: T2, human dopamine D2L receptors (long isoform) (Homo sapiens, UniProt P14416); experiment: Dopamine D2L receptor binding, displacement of [125I] iodospiperone; details: membranes of HEK-293 cells stably expressing human D2L; 0.01 nM [125I] iodospiperone; 25° C., 60 minutes; read-out: Ki(D2)*
T2 construct: expressed in transfected cells
T2 sequence (P14416 whole entry, canonical isoform): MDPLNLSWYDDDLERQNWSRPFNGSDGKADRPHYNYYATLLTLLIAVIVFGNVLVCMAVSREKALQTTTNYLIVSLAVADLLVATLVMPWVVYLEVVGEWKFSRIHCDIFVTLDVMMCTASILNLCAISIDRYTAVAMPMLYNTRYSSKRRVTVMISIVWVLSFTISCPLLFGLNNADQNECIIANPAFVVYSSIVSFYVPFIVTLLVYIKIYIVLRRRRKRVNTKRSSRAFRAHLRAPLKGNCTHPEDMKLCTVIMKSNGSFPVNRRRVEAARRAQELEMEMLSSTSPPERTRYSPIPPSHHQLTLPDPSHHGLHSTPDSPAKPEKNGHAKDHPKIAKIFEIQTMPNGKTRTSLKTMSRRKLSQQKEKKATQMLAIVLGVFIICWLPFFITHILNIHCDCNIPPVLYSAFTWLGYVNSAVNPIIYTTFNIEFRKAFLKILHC
Procedure, shortened: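 Displacement of [125I]iodospiperone from human D2L receptors, triplicates, in 50 mM Tris pH 7.4 with 120 mM NaCl, 5 mM KCl, 2 mM CaCl2, 2 mM MgCl2, 0.1% BSA. Incubated 60 min at 25 °C, then filtered and counted by scintillation. Ki came from iterative nonlinear regression of inhibition curves.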

Structure (SMILES)	pKi [1]	Ki(D2)*/Ki(D3)* [1]	pKi [2]
C=CCN1CC[C@@H](c2ccc(NS(=O)(=O)c3ccc(OC(F)(F)F)cc3)cc2)C1 [Example 101, N-[4-((S)-1-Allyl-pyrrolidin-3-yl)-phenyl]-4-trifluoromethoxy-benzenesulfonamide]	8.43	73	6.57
CCCN1CC[C@@H](c2ccc(NS(=O)(=O)c3ccc(CC(F)(F)F)cc3)cc2)C1 [Example 103, N-[4-((S)-1-Propyl-pyrrolidin-3-yl)-phenyl]-4-(2,2,2-trifluoro-ethyl)benzenesulfonamide]	8.92	38	7.35
CCN1CC[C@@H](c2ccc(NS(=O)(=O)c3ccc(OC(F)(F)F)cc3)cc2)C1 [Example 104, N-[4-((S)-1-Ethyl-pyrrolidin-3-yl)-phenyl]-4-trifluoromethoxy-benzenesulfonamide]	8.08	43	6.45
CCCN1CC[C@@H](c2ccc(NS(=O)(=O)c3ccc(Cl)s3)cc2)C1 [Example 105, 5-Chloro-thiophene-2-sulfonic acid [4-((S)-1-propyl-pyrrolidin-3-yl)-phenyl]-amide]	8.21	51	6.51
CN1CC[C@@H](c2ccc(NS(=O)(=O)c3ccc(OC(F)(F)F)cc3)cc2)C1 [Example 111, N-[4-((S)-1-Methyl-pyrrolidin-3-yl)-phenyl]-4-trifluoromethoxy-benzenesulfonamide]	7.79	44	6.14
C=CCN1CC[C@H](c2ccc(NS(=O)(=O)c3ccc(C(C)C(F)(F)F)cc3)cc2)C1 (stereo partly drawn) [Example 112, N-[4-((R)-1-Allyl-pyrrolidin-3-yl)-phenyl]-4-(2,2,2-trifluoro-1-methyl-ethyl)benzenesulfonamide]	7.99	116	5.92
C=CCN1CC[C@@H](c2ccc(NS(=O)(=O)c3ccc([C@@H](C)CF)cc3)cc2)C1 [Example 113, N-[4-((S)-1-Allyl-pyrrolidin-3-yl)-phenyl]-4-((R)-2-fluoro-1-methyl-ethyl)benzenesulfonamide]	9.31	86	7.37
O=S(=O)(Nc1ccc([C@@H]2CCN(CCCF)C2)cc1)c1ccc(OC(F)(F)F)cc1 [Example 114, N-{4-[(S)-1-(3-Fluoro-propyl)-pyrrolidin-3-yl]-phenyl}-4-trifluoromethoxy-benzenesulfonamide]	8.38	111	6.33

Results, then the molecule that gave them:

pKi [1]	Ki(D2)*/Ki(D3)* [1]	pKi [2]	Structure (SMILES)
7.28	52	5.57	O=S(=O)(Nc1ccc([C@@H]2CCNC2)cc1)c1ccc(OC(F)(F)F)cc1 [Example 102, N—((S)-4-Pyrrolidin-3-yl-phenyl)-4-trifluoromethoxy-benzenesulfonamide]
9.38	108	7.34	C=CCN1CC[C@@H](c2ccc(NS(=O)(=O)c3ccc(CCCF)cc3)cc2)C1 [Example 107, N-[4-((S)-1-Allyl-pyrrolidin-3-yl)-phenyl]-4-(3-fluoro-propyl)-benzene sulfonamide]
7.95	18	6.69	O=S(=O)(Nc1ccc([C@@H]2CCNC2)cc1)c1ccc(CCCF)cc1 [Example 108, 4-(3-Fluoro-propyl)-N—((S)-4-pyrrolidin-3-yl-phenyl)-benzenesulfonamide]
8.13	35	6.59	C[C@H](CF)c1ccc(S(=O)(=O)Nc2ccc([C@@H]3CCNC3)cc2)cc1 [Example 109, 4-((S)-2-Fluoro-1-methyl-ethyl)-N—((S)-4-pyrrolidin-3-yl-Phenyl)-benzenesulfonamide]
8.18	135	6.05	C[C@@H](CF)c1ccc(S(=O)(=O)Nc2ccc([C@@H]3CCNC3)cc2)cc1 [Example 110, 4-((R)-2-Fluoro-1-methyl-ethyl)-N—((S)-4-pyrrolidin-3-yl-phenyl)-benzenesulfonamide]
